Source: patent publication US9006225B2, “Stable pharmaceutical composition” (Asahi Kasei Pharma Corporation, priority 2008, dated 2015)

What was measured:
Format in all cases: physicochemical
[1] = Coloring of solutions of the compound of Preparation Example 7 with additives after storage (Experimental Example 5); parameters: key to Degree of coloring, Sample solution after storage at 60° C. for 6 days / Degree of coloring, Control solution after storage at 60° C. for 6 days: −: No coloring; +: Coloring; ++: Marked coloring; conditions: for Degree of coloring, Sample solution after storage at 60° C. for 6 days: 10 mg compound of Preparation Example 7 in methanol 2 mL + 1 mL of 10 mg/mL aqueous solution of the additive; for Coloring of the solution of the compound of Preparation Example 7 by the influence of the additive: 60° C. for 6 days, methanol/water; for Degree of coloring, Control solution after storage at 60° C. for 6 days: control: 10 mg compound of Preparation Example 7 in methanol 2 mL + 1 mL purified water, no additive
Procedure: The compound obtained according to the method of Preparation Example 7 was weighed in an amount of 10 mg in a stoppered test tube, added with methanol (2 mL) for dissolution, and then further added with a 10 mg/mL aqueous solution of each of additives shown in Table 5 (1 mL) to prepare a sample solution. Separately, the compound obtained according to the method of Preparation Example 7 was weighed in an amount of 10 mg in a stoppered test tube, added with methanol (2 mL) for dissolution, and then further added with purified water (1 mL) to prepare a control solution. The prepared sample solutions and the control solution were stored in an incubator (Minijet Oven, Toyama Sangyo) at 60° C. for 6 days.

[2] = Coloring of compound solutions with glucose after storage (Experimental Example 4); parameters: key: −: No coloring; +: Coloring; ++: Marked coloring; conditions: for Degree of coloring, Sample solution after storage at 60° C. for 6 days: 10 mg compound in methanol 2 mL + 1 mL glucose aqueous solution 10 mg/mL; for Degree of coloring, Control solution after storage at 60° C. for 6 days: 10 mg compound in methanol 2 mL + 1 mL purified water (no glucose)
Procedure: The compounds of Preparation Examples 2 to 5 and 7 were each weighed in an amount of 10 mg in a stoppered test tube, added with methanol (2 mL), dissolved in the methanol, and then further added with a glucose aqueous solution (1 mL) of 10 mg/mL concentration to prepare sample solutions. Separately, the compounds of Preparation Examples 2 to 5 and 7 were each weighed in an amount of 10 mg in a stoppered test tube, added with methanol (2 mL), dissolved in the methanol, and then further added with purified water (1 mL) to prepare control solutions. The prepared sample solutions and the control solutions were stored in an incubator (Minijet Oven, Toyama Sangyo) at 60° C. for 6 days.

[3] = Solubility of crystal forms in an aqueous solvent

Which “Degree of coloring, Sample solution after storage at 60° C. for 6 days” value (from here on “Degree of coloring, Sample solution”) [1] does the source give for `OC[C@H]1O[C@@H](O[C@H]2[C@H](O)[C@@H](O)C(O)O[C@@H]2CO)[C@H](O)[C@@H](O)[C@H]1O` (some centres unmarked) [Lactose] here?
Its value is “+”.

What about the “Coloring of the solution of the compound of Preparation Example 7 by the influence of the additive” value (from here on “Coloring of the solution … of the additive”) [1] of the same molecule?
Its value is “coloring”.

And the “Degree of coloring, Control solution after storage at 60° C. for 6 days” value (“Degree of coloring, Control solution” for short) [1]?
The value was “−”.

Which results are given for `Cc1ccc(CCOc2c(N)cc(CCC(=O)O)cc2-c2ccc3ccccc3c2)cc1` [Compound of Preparation Example 2, 3-{3-amino-4-[2-(4-methylphenyl)ethyloxy]-5-(naphthalen-2-yl)phenyl}propionic acid]?
Degree of coloring, Sample solution after storage at 60° C. for 6 days [2]: +; Degree of coloring, Control solution after storage at 60° C. for 6 days [2]: −

Which results are given for `OC[C@H]1O[C@H](O[C@H]2[C@H](O)[C@@H](O)[C@H](O)O[C@@H]2CO)[C@H](O)[C@@H](O)[C@@H]1O` [Maltose]?
Degree of coloring, Sample solution after storage at 60° C. for 6 days [1]: +; Coloring of the solution of the compound of Preparation Example 7 by the influence of the additive [1]: coloring; Degree of coloring, Control solution after storage at 60° C. for 6 days [1]: −

With `O=C[C@H](O)[C@@H](O)[C@H](O)CO` [Xylose] as the molecule, how does the “Degree of coloring, Sample solution” value [1] read?
Its value is “++”.

What about the “Coloring of the solution … of the additive” value [1] of the same molecule?
The value was “coloring”.

What about the “Degree of coloring, Control solution” value [1] of the same molecule?
Its value is “−”.

What does the source list for `OC[C@H]1O[C@H](O[C@H]2O[C@H](CO)[C@@H](O)[C@H](O)[C@H]2O)[C@H](O)[C@@H](O)[C@@H]1O` [Trehalose]?
Degree of coloring, Sample solution after storage at 60° C. for 6 days [1]: −; Coloring of the solution of the compound of Preparation Example 7 by the influence of the additive [1]: no coloring; Degree of coloring, Control solution after storage at 60° C. for 6 days [1]: −

For `OC[C@H]1O[C@@](CO)(O[C@H]2O[C@H](CO)[C@@H](O)[C@H](O)[C@H]2O)[C@@H](O)[C@@H]1O` [Sucrose], which “Degree of coloring, Sample solution” value [1] is on record?
The value was “−”.

What about the “Coloring of the solution … of the additive” value [1] of the same molecule?
The value was “no coloring”.

What about the “Degree of coloring, Control solution” value [1] of the same molecule?
Its value is “−”.

Which results are given for `O=C(CO)[C@@H](O)[C@H](O)[C@H](O)CO` [Fructose]?
Degree of coloring, Sample solution after storage at 60° C. for 6 days [1]: +; Coloring of the solution of the compound of Preparation Example 7 by the influence of the additive [1]: coloring; Degree of coloring, Control solution after storage at 60° C. for 6 days [1]: −

For `Cn1ccc2cc(-c3cc(CCC(=O)O)cc(N)c3OCC3CCCC3)ccc21` [Compound of Preparation Example 4, 3-[3-amino-4-cyclopentylmethyloxy-5-(1-methyl-1H-indol-5-yl)phenyl]propionic acid], which “Degree of coloring, Sample solution” value [2] is on record?
Its value is “++”.

What about the “Degree of coloring, Control solution” value [2] of the same molecule?
The value was “−”.

Which “Degree of coloring, Sample solution” value [2] does the source give for `Nc1cc(CCC(=O)O)cc(-c2ccc3[nH]ncc3c2)c1OC1Cc2ccccc2C1` [Compound of Preparation Example 5, 3-[3-amino-4-(indan-2-yloxy)-5-(1H-indazol-5-yl)phenyl]propionic acid] here?
Its value is “+”.

What about the “Degree of coloring, Control solution” value [2] of the same molecule?
The value was “−”.

Which “Degree of coloring, Sample solution” value [2] does the source give for `Nc1cc(CCC(=O)O)cc(-c2ccc3[nH]ccc3c2)c1OCC1CCCC1` [Compound of Preparation Example 3, 3-[3-amino-4-cyclopentylmethyloxy-5-(1H-indol-5-yl)phenyl]propionic acid] here?
The value was “++”.

What about the “Degree of coloring, Control solution” value [2] of the same molecule?
The value was “−”.

Which “Degree of coloring, Sample solution” value [1] does the source give for `OC[C@@H](O)[C@@H](O)[C@H](O)[C@H](O)CO` [D-Mannitol] here?
The value was “−”.

What about the “Coloring of the solution … of the additive” value [1] of the same molecule?
The value was “no coloring”.

What about the “Degree of coloring, Control solution” value [1] of the same molecule?
The value was “−”.

With `OC[C@@H](O)[C@@H](O)CO` [Erythritol] as the molecule, how does the “Degree of coloring, Sample solution” value [1] read?
The value was “−”.

What about the “Coloring of the solution … of the additive” value [1] of the same molecule?
The value was “no coloring”.

And the “Degree of coloring, Control solution” value [1]?
The value was “−”.

Which “Solubility in an aqueous solvent compared with the type B crystals” value [3] does the source give for `Cn1ncc2cc(-c3cc(CCC(=O)O)cc(N)c3OC3Cc4ccccc4C3)ccc21` [Compound of Preparation Example 7, 3-[3-amino-4-(indan-2-yloxy)-5-(1-methyl-1H-indazol-5-yl)phenyl]propionic acid] here?
The value was “higher”.

What about the “Degree of coloring, Sample solution” value [2] of the same molecule?
The value was “++”.

What about the “Degree of coloring, Control solution” value [2] of the same molecule?
Its value is “−”.
